{"source": "paper PMC8297715", "about": "(ACS chemical biology, 2020)", "key": {"human nSMase2": {"biological_target": "T1, human nSMase2 (Homo sapiens, UniProt Q9NY59)", "T1 sequence (Q9NY59 1-655)": "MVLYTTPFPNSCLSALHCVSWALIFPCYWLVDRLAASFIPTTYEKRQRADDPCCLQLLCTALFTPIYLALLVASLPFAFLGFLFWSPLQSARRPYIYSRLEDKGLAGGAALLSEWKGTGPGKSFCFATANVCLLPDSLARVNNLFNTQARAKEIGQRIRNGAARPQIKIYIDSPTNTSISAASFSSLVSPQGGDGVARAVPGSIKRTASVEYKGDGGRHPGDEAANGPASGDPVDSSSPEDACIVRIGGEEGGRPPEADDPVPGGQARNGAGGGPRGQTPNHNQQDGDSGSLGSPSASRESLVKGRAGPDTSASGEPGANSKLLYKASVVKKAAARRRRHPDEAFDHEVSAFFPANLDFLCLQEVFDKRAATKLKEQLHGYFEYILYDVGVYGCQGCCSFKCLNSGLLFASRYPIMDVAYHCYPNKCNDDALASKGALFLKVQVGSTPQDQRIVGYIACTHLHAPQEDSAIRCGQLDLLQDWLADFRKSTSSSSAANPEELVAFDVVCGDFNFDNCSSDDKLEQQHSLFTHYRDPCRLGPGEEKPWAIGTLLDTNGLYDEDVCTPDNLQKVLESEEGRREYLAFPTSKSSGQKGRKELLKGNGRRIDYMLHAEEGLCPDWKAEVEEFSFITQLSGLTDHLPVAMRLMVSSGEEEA", "assay": "Amplex Red neutral sphingomyelinase enzyme activity assay", "format": "biochemical"}, "[1]": {"tested_on": "HEK293T Tau RD P301S FRET biosensor (tau biosensor)", "assay": "EV-mediated transfer", "format": "cell-based", "conditions": "20 μM"}, "human AChE [2]": {"biological_target": "T2, human AChE (Homo sapiens, UniProt P22303)", "T2 sequence (P22303 32-614)": "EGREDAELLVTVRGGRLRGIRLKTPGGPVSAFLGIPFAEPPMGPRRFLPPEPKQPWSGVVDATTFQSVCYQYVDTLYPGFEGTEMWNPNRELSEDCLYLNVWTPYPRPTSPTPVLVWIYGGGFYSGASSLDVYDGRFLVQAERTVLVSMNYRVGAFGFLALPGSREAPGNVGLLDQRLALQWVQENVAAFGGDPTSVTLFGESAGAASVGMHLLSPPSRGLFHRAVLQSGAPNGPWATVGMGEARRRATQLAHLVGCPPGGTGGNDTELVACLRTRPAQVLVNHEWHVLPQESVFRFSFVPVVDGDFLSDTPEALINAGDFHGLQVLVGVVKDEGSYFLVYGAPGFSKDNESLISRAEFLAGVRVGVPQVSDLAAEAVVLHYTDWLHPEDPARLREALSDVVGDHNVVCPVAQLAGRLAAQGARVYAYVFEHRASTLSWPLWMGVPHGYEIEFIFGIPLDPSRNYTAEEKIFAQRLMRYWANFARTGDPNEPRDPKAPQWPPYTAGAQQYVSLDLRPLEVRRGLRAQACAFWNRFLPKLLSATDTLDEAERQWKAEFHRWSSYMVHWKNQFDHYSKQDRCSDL", "assay": "Amplex Red acetylcholinesterase", "format": "biochemical", "conditions": "read-out: AChE inhibition IC50; dose-response; human AChE (Sigma)"}, "human AChE [3]": {"biological_target": "T2, human AChE", "conditions": "cited from earlier work"}, "[4]": {"tested_on": "HEK293T Tau RD P301S FRET biosensor (tau biosensor)", "conditions": "previously published; cited from earlier work"}}, "data": [{"smiles": "CCN(C)C(=O)Oc1cccc([C@H](C)N(C)C)c1", "note": "[rivastigmine]", "values": [{"measurement": "nSMase2 activity", "setting": "human nSMase2", "result": "no nSMase2 activity"}, {"measurement": "EV-mediated tau seed transfer, EMT assay", "setting": "[1]", "result": "partially suppress"}]}, {"smiles": "CN1c2ccc(OC(=O)Nc3ccccc3)cc2[C@]2(C)CCO[C@H]12", "note": "[compound 1, (−)-phensvenine]", "values": [{"measurement": "IC50", "setting": "human AChE [2]", "result": 0.5, "unit": "µM"}]}, {"smiles": "CN1CC[C@]2(C)c3cc(OC(=O)Nc4ccccc4)ccc3N(C)[C@H]12", "note": "[Posiphen]", "values": [{"measurement": "AChE inhibitor activity", "setting": "human AChE [3]; reported", "result": "weak AChE inhibitor"}, {"measurement": "IC50", "setting": "human nSMase2", "result": "> 50", "unit": "µM"}]}, {"smiles": "CN1CC[C@@]2(C)c3cc(OC(=O)Nc4ccccc4)ccc3N(C)[C@@H]12", "note": "[phenserine]", "values": [{"measurement": "IC50", "setting": "human nSMase2", "result": "> 50", "unit": "µM"}]}, {"smiles": "O=c1[nH]c(=S)[nH]c(-c2ccccc2)c1Cc1c(O)ccc2ccccc12", "note": "[cambinol]", "values": [{"measurement": "AChE activity", "setting": "human AChE [3]; previously published", "result": "no AChE activity"}, {"measurement": "tau seed transfer in the EMT assay", "setting": "[4]", "result": "shows inhibition of tau seed transfer"}]}]}
